{"source": "paper PMC11999280", "about": "“Design and screening of novel endosomal escape compounds that enhance functional delivery of oligonucleotides in vitro” (Molecular Therapy. Nucleic Acids, 2025)", "assay_type_in_all_cases": "cell-based", "key": {"[1]": {"system": "HeLa_Luc705 cells (pLuc/705 splice-switching reporter)", "test": "Functional 705-SSO delivery, luciferase splice-switching assay", "conditions": "for Luciferase expression compared to reference: mean from >3 independent experiments", "procedure,_shortened": "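Cells seeded at 10,000/well were pre-incubated 24 h with 1–2 μM 2′-O-methyl phosphorothioate 705-SSO, then exposed to endosomal escape enhancer at the stated concentrations. After 24 h, cells were lysed in 0.1% Triton X-100 and firefly luciferase luminescence was read as the splice-correction signal. LF2000 lipofection with 100–200 nM SSO served as transfection control.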"}, "[2]": {"system": "mCherry-GAL9 expressing HuH7 cells", "test": "GAL9 recruitment assay, HuH7", "conditions": "calculated mean from >3 independent exp.", "procedure,_shortened": "(§1)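 Stable mCherry-GAL9 lines; 24 h post-seeding, compound dosed as dose-response. Endpoint: PBS wash, 4% PFA fix (RT), Hoechst 33342 1 μg/mL. Confocal imaging ×20w, GAL9 puncta quantified. N = 3, duplicate wells.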"}, "[3]": {"system": "mCherry-GAL9 expressing 16HBE cells", "test": "GAL9 recruitment assay, 16HBE", "conditions": "calculated mean from >3 independent exp.", "procedure,_shortened": "as §1"}, "[4]": {"system": "mCherry-GAL9 expressing NCI-H358 cells", "test": "GAL9 recruitment assay, NCI-H358", "conditions": "calculated mean from >3 independent exp.", "procedure,_shortened": "as §1"}, "[5]": {"system": "mCherry-GAL9 expressing HepG2 cells", "test": "GAL9 recruitment assay, HepG2", "conditions": "calculated mean from >3 independent exp.", "procedure,_shortened": "as §1"}, "[6]": {"system": "mCherry-GAL9 expressing HEK293 cells", "test": "GAL9 recruitment assay, HEK293", "conditions": "calculated mean from >3 independent exp.", "procedure,_shortened": "as §1"}, "[7]": {"system": "cell lines carrying an mCherry-GAL9-reporter", "test": "GAL9 puncta formation upon EEE dose escalation (images)", "conditions": "dose escalation 0.31 to 10 μM", "experimental": "We further studied endosomal leakage by quantifying GAL9 recruitment upon EEE dose escalation, from 0.31 to 10 μM. For this purpose, we used cell lines carrying an mCherry-GAL9-reporter, where endosomal rupture could be quantified by measuring GAL9 clustering as a puncta event representative of endosomal remodeling.\nExperiments assessing GAL9 localization as an indicator for endosomal remodeling were performed as previously described[15] using 8× stablemCherry-GAL9 expressing cell lines, SHSY5Y, U2OS, 16HBE, NCI-H358, HuH7, HepG2, HEK293, and HeLa. For mCherry-GAL9 recruitment, 3,000 or 6,500 cells/well (depending upon cell line) were seeded into 384-well CellCarrier Ultra plates 24 h prior to treatment (PerkinElmer, catalog no. 6007558). An Echo 655T acoustic dispenser (Labcyte) was used for EEE dose-response preparation by transferring to the cell plate. At assay endpoints, cells were PBS washed, 4% paraformaldehyde fixed at room temperature […] (VWR, catalog no. 9713.1000), and nuclei stained with PBS +1 μg/mL Hoechst 33342 (Thermo Fisher Scientific, catalog no. H21492).\nImaging was performed using a spinning-disk confocal microscope (Yokogawa: CV8000) with a ×20w objective (numerical aperture 1.0). Cells and mCherry-GAL9 structure identification and quantification were done using Columbus image-analysis software (PerkinElmer version 2.9.0). […]"}, "[8]": {"system": "mCherry-GAL9 expressing U2OS cells", "test": "GAL9 recruitment assay, U2OS", "conditions": "calculated mean from >3 independent exp.", "procedure,_shortened": "as §1"}, "[9]": {"system": "mCherry-GAL9 expressing SHSY5Y cells", "test": "GAL9 recruitment assay, SHSY5Y", "conditions": "calculated mean from >3 independent exp.", "procedure,_shortened": "as §1"}, "[10]": {"system": "mCherry-GAL9 expressing HeLa cells", "test": "GAL9 recruitment assay, HeLa", "conditions": "calculated mean from >3 independent exp.", "procedure,_shortened": "as §1"}, "[11]": {"system": "PPIB mRNA in primary human hepatocytes", "test": "PPIB siRNA knockdown, qPCR", "conditions": "EEE32 at 2 μM with GalNAc-siPPIB", "experimental": "Studies of siRNA knockdown therapeutics were performed in primary human hepatocytes using EEE32-mediated enhancement. We aimed to target peptidylpropyl isomerase B (PPIB) mRNA by using siRNA (siPPIB) either alone or together with the EEE32 and comparing them with GalNAc-conjugated siRNA (GalNAc-siPPIB), which is considered a potent human liver uptake enhancer.[30] […] However, the use of EEE32 at a 2-μM concentration enhanced GalNAc-siPPIB activity, improving the knockdown capacity by approximately 10-fold (Figure 5B, top). Additionally, no significant differences indicating compromised cell viability were observed when measuring systematic decreases in RNA yield from both groups (Figure 5B, bottom).\nHuman primary hepatocytes obtained from a commercial supplier (QNT lot, BioIVT) were cultured in rat tail collagen I-coated 96-well plates (Corning, catalog no. 354407) using William’s E Medium (A1217601,Thermo Fisher) supplemented with thawing and plating supplements (Thermo Fisher, catalog no. CM3000) (day 0). […]"}, "[12]": {"conditions": "HeLa-Luc705 + 1 µM SSO, EEE 0.5 µM"}, "[13]": {"conditions": "HeLa-Luc705 + 1 µM SSO, EEE 2 µM"}, "[14]": {"conditions": "HeLa-Luc705 + 1 µM SSO, EEE 4 µM"}, "[15]": {"conditions": "HeLa-Luc705 + 1 µM SSO, EEE 5 µM"}}}
{"smiles": "COc1nn(C2CCN(C)CC2)cc1Nc1ncc(F)c(-n2ccc3c(C#N)cccc32)n1", "note": "[EEE8]", "values": [{"measurement": "Luciferase expression compared to reference", "setting": "[1]; [12]", "value": 0.717}, {"measurement": "Luciferase expression compared to reference", "setting": "[1]; [13]", "value": 2.253}, {"measurement": "Luciferase expression compared to reference", "setting": "[1]; [14]", "value": 11.227}, {"measurement": "Luciferase expression compared to reference", "setting": "[1]; [15]", "value": 31.147}, {"measurement": "Luciferase expression compared to reference", "setting": "[1]; HeLa-Luc705 + 2 µM SSO, EEE 5 µM", "value": 52.876}, {"measurement": "EEE dose required to show splice-switching above 10-fold normalized to SSO only", "setting": "[1]; dose-response, 1 μM SSO", "value": 4.5, "unit": "μM"}, {"measurement": "Gal9 response compared to reference", "setting": "[2]; EEE 0.31 µM", "value": 0.010}, {"measurement": "Gal9 response compared to reference", "setting": "[2]; EEE 0.62 µM", "value": 0.016}, {"measurement": "Gal9 response compared to reference", "setting": "[2]; EEE 1.25 µM", "value": 0.078}, {"measurement": "Gal9 response compared to reference", "setting": "[2]; EEE 2.5 µM", "value": 0.313}, {"measurement": "Gal9 response compared to reference", "setting": "[2]; EEE 5 µM", "value": 0.228}, {"measurement": "Gal9 response compared to reference", "setting": "[2]; EEE 10 µM", "value": 0.160}, {"measurement": "Gal9 response compared to reference", "setting": "[3]; EEE 0.31 µM", "value": 0.011}, {"measurement": "Gal9 response compared to reference", "setting": "[3]; EEE 0.62 µM", "value": 0.035}, {"measurement": "Gal9 response compared to reference", "setting": "[3]; EEE 1.25 µM", "value": 0.180}, {"measurement": "Gal9 response compared to reference", "setting": "[3]; EEE 2.5 µM", "value": 0.503}, {"measurement": "Gal9 response compared to reference", "setting": "[3]; EEE 5 µM", "value": 0.638}, {"measurement": "Gal9 response compared to reference", "setting": "[3]; EEE 10 µM", "value": 0.492}, {"measurement": "Gal9 response compared to reference", "setting": "[4]; EEE 0.31 µM", "value": 0.017}, {"measurement": "Gal9 response compared to reference", "setting": "[4]; EEE 0.62 µM", "value": 0.032}, {"measurement": "Gal9 response compared to reference", "setting": "[4]; EEE 1.25 µM", "value": 0.148}, {"measurement": "Gal9 response compared to reference", "setting": "[4]; EEE 2.5 µM", "value": 0.553}, {"measurement": "Gal9 response compared to reference", "setting": "[4]; EEE 5 µM", "value": 0.623}, {"measurement": "Gal9 response compared to reference", "setting": "[4]; EEE 10 µM", "value": 0.457}, {"measurement": "Gal9 response compared to reference", "setting": "[5]; EEE 0.31 µM", "value": 0.007}, {"measurement": "Gal9 response compared to reference", "setting": "[5]; EEE 0.62 µM", "value": 0.008}, {"measurement": "Gal9 response compared to reference", "setting": "[5]; EEE 1.25 µM", "value": 0.011}, {"measurement": "Gal9 response compared to reference", "setting": "[5]; EEE 2.5 µM", "value": 0.075}, {"measurement": "Gal9 response compared to reference", "setting": "[5]; EEE 5 µM", "value": 0.511}, {"measurement": "Gal9 response compared to reference", "setting": "[5]; EEE 10 µM", "value": 0.529}, {"measurement": "Gal9 response compared to reference", "setting": "[6]; EEE 0.31 µM", "value": 0.027}, {"measurement": "Gal9 response compared to reference", "setting": "[6]; EEE 0.62 µM", "value": 0.052}, {"measurement": "Gal9 response compared to reference", "setting": "[6]; EEE 1.25 µM", "value": 0.309}, {"measurement": "Gal9 response compared to reference", "setting": "[6]; EEE 2.5 µM", "value": 0.657}, {"measurement": "Gal9 response compared to reference", "setting": "[6]; EEE 5 µM", "value": 0.605}, {"measurement": "Gal9 response compared to reference", "setting": "[6]; EEE 10 µM", "value": 0.329}, {"measurement": "EEE concentration with clear GAL9 puncta formation", "setting": "[7]", "value": "≥ 1.25", "unit": "µM"}, {"measurement": "Gal9 response compared to reference", "setting": "[8]; EEE 0.31 µM", "value": 0.012}, {"measurement": "Gal9 response compared to reference", "setting": "[8]; EEE 0.62 µM", "value": 0.013}, {"measurement": "Gal9 response compared to reference", "setting": "[8]; EEE 1.25 µM", "value": 0.029}, {"measurement": "Gal9 response compared to reference", "setting": "[8]; EEE 2.5 µM", "value": 0.234}, {"measurement": "Gal9 response compared to reference", "setting": "[8]; EEE 5 µM", "value": 0.490}, {"measurement": "Gal9 response compared to reference", "setting": "[8]; EEE 10 µM", "value": 0.563}, {"measurement": "Gal9 response compared to reference", "setting": "[9]; EEE 0.31 µM", "value": 0.014}, {"measurement": "Gal9 response compared to reference", "setting": "[9]; EEE 0.62 µM", "value": 0.082}, {"measurement": "Gal9 response compared to reference", "setting": "[9]; EEE 1.25 µM", "value": 0.694}, {"measurement": "Gal9 response compared to reference", "setting": "[9]; EEE 2.5 µM", "value": 0.629}, {"measurement": "Gal9 response compared to reference", "setting": "[9]; EEE 5 µM", "value": 0.567}, {"measurement": "Gal9 response compared to reference", "setting": "[9]; EEE 10 µM", "value": 0.278}, {"measurement": "Gal9 response compared to reference", "setting": "[10]; EEE 0.31 µM", "value": 0.004}, {"measurement": "Gal9 response compared to reference", "setting": "[10]; EEE 0.62 µM", "value": 0.009}, {"measurement": "Gal9 response compared to reference", "setting": "[10]; EEE 1.25 µM", "value": 0.105}, {"measurement": "Gal9 response compared to reference", "setting": "[10]; EEE 2.5 µM", "value": 0.319}, {"measurement": "Gal9 response compared to reference", "setting": "[10]; EEE 5 µM", "value": 0.459}, {"measurement": "Gal9 response compared to reference", "setting": "[10]; EEE 10 µM", "value": 0.198}]}
{"smiles": "COc1nn(C2CCNC(C)(C)C2)cc1Nc1ncc(F)c(-n2ccc3c(C#N)cccc32)n1", "note": "(centres unmarked) [EEE32]", "values": [{"measurement": "Luciferase expression compared to reference", "setting": "[1]; [12]", "value": 3.743}, {"measurement": "Luciferase expression compared to reference", "setting": "[1]; [13]", "value": 115.294}, {"measurement": "Luciferase expression compared to reference", "setting": "[1]; [14]", "value": 111.401}, {"measurement": "Luciferase expression compared to reference", "setting": "[1]; [15]", "value": 66.337}, {"measurement": "Splice-switching with 24-h SSO pre-incubation relative to SSO co-treatment", "setting": "[1]; dose response, luciferase readout at time points after EEE addition", "value": "around 17 times"}, {"measurement": "Splice-switching enhancement", "setting": "[1]; using 2–2.5 μM EEE", "value": "above 100 fold"}, {"measurement": "Improvement of GalNAc-siPPIB knockdown capacity", "setting": "[11]", "value": "approximately 10 fold"}]}
